Experimental data published in patent US20240294595A1, “GLYCOPEPTIDES AND USES THEREOF” (Arizona Board of Regents on Behalf of the University of …, priority 2013, published 2024).
“Also recorded” adds a separate entry of the source.

What was measured:
VPAC2 = molecular target: T1, VPAC2 (Homo sapiens, UniProt P41587); test: VPAC2 agonist data (Table 2); format: cell-based
T1 sequence (P41587 24-438): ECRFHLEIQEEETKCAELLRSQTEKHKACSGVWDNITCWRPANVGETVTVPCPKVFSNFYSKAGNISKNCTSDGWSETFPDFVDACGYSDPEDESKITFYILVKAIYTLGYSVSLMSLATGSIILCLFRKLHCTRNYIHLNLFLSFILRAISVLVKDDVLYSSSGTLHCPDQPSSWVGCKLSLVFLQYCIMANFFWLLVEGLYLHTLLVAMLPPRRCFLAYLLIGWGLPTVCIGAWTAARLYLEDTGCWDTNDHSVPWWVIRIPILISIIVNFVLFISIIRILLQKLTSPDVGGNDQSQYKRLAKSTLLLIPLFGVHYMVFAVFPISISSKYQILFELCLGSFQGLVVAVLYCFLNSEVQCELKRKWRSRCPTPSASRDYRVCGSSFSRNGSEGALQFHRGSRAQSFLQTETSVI

[1] = system: traumatic brain injury (TBI); test: mouse model of diffuse TBI (midline fluid percussion injury); format: in vivo
Experimental: Lead compound 2LS80Mel was evaluated for its neuroprotective potential in vivo utilizing a mouse model of traumatic brain injury (TBI). Mice were pretreated with either a single dose of 2LS80Mel (10 mg/kg i.p.) or sterile saline 30 min prior to being subjected to a midline fluid percussion injury. The mice were then evaluated for sleep-wake behavior (FIGS. 8A-C), motor skills and cognition, (FIGS. 8D-F), the presence of inflammatory markers, (FIGS. 8G-L), and microglial morphology (FIGS. 8M-O).

VPAC1 = molecular target: T2, VPAC1 (Homo sapiens, UniProt P32241); test: VPAC1 agonist data (Table 2); format: cell-based
T2 sequence (P32241 31-457): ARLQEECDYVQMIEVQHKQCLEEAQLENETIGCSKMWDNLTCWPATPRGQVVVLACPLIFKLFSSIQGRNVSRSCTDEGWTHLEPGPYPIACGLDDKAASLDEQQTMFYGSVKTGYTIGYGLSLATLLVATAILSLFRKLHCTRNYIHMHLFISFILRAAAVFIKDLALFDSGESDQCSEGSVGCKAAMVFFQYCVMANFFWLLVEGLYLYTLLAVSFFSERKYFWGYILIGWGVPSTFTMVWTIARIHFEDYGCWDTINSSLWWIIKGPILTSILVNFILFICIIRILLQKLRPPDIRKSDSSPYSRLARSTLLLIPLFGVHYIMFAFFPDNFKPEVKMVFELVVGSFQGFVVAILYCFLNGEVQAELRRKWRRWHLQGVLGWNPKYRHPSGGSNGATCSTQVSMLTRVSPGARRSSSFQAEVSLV

PAC1 = molecular target: T3, PAC1 (Homo sapiens, UniProt P41586); test: PAC1 agonist data (Table 2); format: cell-based; parameters: host or cells: CHO (clonal line PAC1-CHO)
T3 sequence (P41586 21-468): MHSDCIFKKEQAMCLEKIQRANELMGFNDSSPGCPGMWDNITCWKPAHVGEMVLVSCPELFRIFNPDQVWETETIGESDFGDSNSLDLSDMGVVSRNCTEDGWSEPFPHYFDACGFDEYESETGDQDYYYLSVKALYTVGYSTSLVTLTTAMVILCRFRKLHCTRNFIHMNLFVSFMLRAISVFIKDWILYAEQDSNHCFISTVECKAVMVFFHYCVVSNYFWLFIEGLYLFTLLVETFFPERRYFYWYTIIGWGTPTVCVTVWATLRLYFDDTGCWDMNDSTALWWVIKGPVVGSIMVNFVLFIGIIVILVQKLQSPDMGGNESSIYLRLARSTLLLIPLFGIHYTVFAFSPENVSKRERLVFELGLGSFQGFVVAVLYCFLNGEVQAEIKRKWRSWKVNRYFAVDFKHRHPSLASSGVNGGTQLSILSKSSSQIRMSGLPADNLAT
Experimental: A custom DNA clone of the human PAC1 gene with 3 hemagglutinin (HA) tags inserted 3′ to the signal peptide sequence (to avoid proteolytic loss) was obtained from Genecopoeia (Rockville, MD). The construct was electroporated into Chinese Hamster Ovary (CHO) cells, and selected for with 500 μg/mL of G418. The resulting population was screened for high expressing clones, and one such clone selected for further analysis. […] This cell line was used for all molecular pharmacology experiments. The cells were maintained in DMEM/F12 with 10% heat-inactivated FBS, 1× penicillin/streptomycin, and 500 μg/mL G418, at 37° C. and 5% CO2.
All molecular pharmacology experiments were carried out using a FLIPR Tetra from Molecular Devices (Sunnyvale, CA), set to image calcium flux using the manufacturer's recommended settings and protocols. The day before an experiment, the PAC1-CHO cells were split into 384 well black walled, clear bottom microplates, 10,000 cells per well. The cells were recovered overnight in growth medium (as above). The next day, the growth medium was replaced with Calcium 6 dye (Molecular Devices) using the manufacturer recommended buffer with 2.5 mM probenecid. The cells were incubated for 2 hours in the culture incubator, and removed during the last 15 minutes to allow equilibration to room temperature. Compound as indicated below was added to the cells using a 384 tip block, with real time monitoring before, during, and 15 minutes after compound addition. The resulting calcium flux was recorded, and the maximum-minimum response over the entire observation time calculated and reported as the mean±SEM (4 wells per point).
For agonist mode experiments, compound was added in an 11 point concentration curve, with a vehicle control (buffer). […] The response was analyzed using a 3 variable non-linear curve fit, and the EC50 (nM) and EMax (%) calculated and reported (Prism, GraphPad, La Jolla, CA).

[2] = stability in mouse serum at 37° C. (FI-MSn); format: in vitro ADME; details: for degradation in mouse serum: mouse serum at 37° C.
Source text: Chemical stability of the glycopeptides in vivo plays an important role in the deliverability of the drugs to the site(s) of action within the brain. It is also important to know what the chemical or metabolic instabilities are in order to inform the drug design process. […] Data were fitted using a single exponential decay model (R^2>0.71, in all cases).
The overall process was as follows: Flow-injection tandem mass spectrometry (FI-MS^n) was used to observe the degradation of the peptides and glycopeptides with a Thermo LCQ with electrospray ionization (ESI). The technique involved injection of a sample bolus of material in mouse serum via a six port valve with fluid flow delivered via a syringe pump, and subsequent electrospray ionization (ESI) followed by mass spectral analysis. Samples were diluted to a concentration of ˜5 μM of each PACAP analogue, and were incubated at 37° C. for times varying from 1 to 60 minutes. After samples had been incubated for the prescribed amount of time they were prepared for mass spectrometry analysis by withdrawing 10 microliters of solution and spiking with 1 microliter of a 10 μM solution of peptide internal standard (angiotensin II) in 50% acetic acid and subjecting them to a standard C18 zip tip desalting. These solutions, once eluted from the zip tip were diluted to 100 μL in 50:50 acetonitrile/water with 0.1% formic acid. Tandem mass spectrometry analysis (MS^3) was conducted to yield specific, quantitative signals proportional to the amount of PACAP analogue at each time point. This technique was also used with microdiasylate samples from a mouse after i.p. administration of PACAP1-27-S-G.

[3] = 10 mg/kg i.p. 30 min prior to TBI

SMILES	EC50 (VPAC2) [nM]	Emax (VPAC2) [%]	cumulative minutes slept in the first 6 h post-injury [1, 3]	sleep in the first dark period [1, 3]	CD11b+Ly6Chigh and CD11b+CD115+Ly6Chigh monocyte populations ([1]; 10 mg/kg i.p. prior to TBI)	sensorimotor deficits, modified NSS ([1]; 10 mg/kg i.p. prior to TBI)	Rotarod latency to fall ([1]; 10 mg/kg i.p. prior to TBI, 2, 5, 7 DPI)	levels of select inflammatory cytokines ([1]; 2LS80Mel-treated vs saline-treated)	microglial morphology ([1]; 2LS80Mel-treated vs saline-treated, 15 DPI)	behavioral, neurological, and motor skill deficits ([1]; overall, FIG. 8)	EC50 (VPAC1) [nM]	Emax (VPAC1) [%]	EC50 (PAC1) [nM]	Emax (PAC1) [%]	degradation in mouse serum [2]	mouse serum t1/2 in vitro ([2]; compared to native / non-glycosylated peptide)
CC[C@H](C)[C@H](NC(=O)CNC(=O)[C@H](CC(=O)O)NC(=O)[C@H](CO)NC(=O)[C@@H](N)Cc1c[nH]cn1)C(=O)N[C@@H](Cc1ccccc1)C(=O)N[C@H](C(=O)N[C@@H](CC(=O)O)C(=O)N[C@@H](CO)C(=O)N[C@@H](Cc1ccc(O)cc1)C(=O)N[C@@H](CO)C(=O)N[C@@H](CCCNC(=N)N)C(=O)N[C@@H](Cc1ccc(O)cc1)C(=O)N[C@@H](CCCNC(=N)N)C(=O)N[C@@H](CCCCN)C(=O)N[C@@H](CCC(N)=O)C(=O)N[C@@H](CC(C)C)C(=O)N[C@@H](C)C(=O)N[C@H](C(=O)N[C@@H](CCCCN)C(=O)N[C@@H](CCCCN)C(=O)N[C@@H](Cc1ccc(O)cc1)C(=O)N[C@@H](CC(C)C)C(=O)N[C@@H](C)C(=O)N[C@@H](C)C(=O)N[C@H](C(=O)N[C@@H](CC(C)C)C(=O)N[C@@H](CO[C@@H]1O[C@H](CO[C@H]2O[C@H](CO)[C@H](O)[C@H](O)[C@H]2O)[C@@H](O)[C@H](O)[C@H]1O)C(N)=O)C(C)C)C(C)C)[C@@H](C)O [Compound 2LS80Mel]	9.4	86	slept comparable minutes to uninjured sham animals	prevented this injury-induced increase in sleep	not seen; also recorded: prevented increases in peripheral monocyte populations	prevented	comparable to uninjured shams at all time points post-injury	no significant differences	no significant differences	attenuated behavioral, neurological, and motor skill deficits	0.55	102	0.57	99		
CC[C@H](C)[C@H](NC(=O)CNC(=O)[C@H](CC(=O)O)NC(=O)[C@H](CO)NC(=O)[C@@H](N)Cc1cnc[nH]1)C(=O)N[C@@H](Cc1ccccc1)C(=O)N[C@H](C(=O)N[C@@H](CC(=O)O)C(=O)N[C@@H](CO)C(=O)N[C@@H](Cc1ccc(O)cc1)C(=O)N[C@@H](CO)C(=O)N[C@@H](CCCNC(=N)N)C(=O)N[C@@H](Cc1ccc(O)cc1)C(=O)N[C@@H](CCCNC(=N)N)C(=O)N[C@@H](CCCCN)C(=O)N[C@@H](CCC(N)=O)C(=O)N[C@@H](CCSC)C(=O)N[C@@H](C)C(=O)N[C@H](C(=O)N[C@@H](CCCCN)C(=O)N[C@@H](CCCCN)C(=O)N[C@@H](Cc1ccc(O)cc1)C(=O)N[C@@H](CC(C)C)C(=O)N[C@@H](C)C(=O)N[C@@H](C)C(=O)N[C@H](C(=O)N[C@@H](CC(C)C)C(N)=O)C(C)C)C(C)C)[C@@H](C)O [PACAP1-27, PACAP-27, reference compound]															degraded over 30 min	
CC[C@H](C)[C@H](NC(=O)CNC(=O)[C@H](CC(=O)O)NC(=O)[C@H](CO)NC(=O)[C@@H](N)Cc1c[nH]cn1)C(=O)N[C@@H](Cc1ccccc1)C(=O)N[C@H](C(=O)N[C@@H](CC(=O)O)C(=O)N[C@@H](CO)C(=O)N[C@@H](Cc1ccc(O)cc1)C(=O)N[C@@H](CO)C(=O)N[C@@H](CCCNC(=N)N)C(=O)N[C@@H](Cc1ccc(O)cc1)C(=O)N[C@@H](CCCNC(=N)N)C(=O)N[C@@H](CCCCN)C(=O)N[C@@H](CCC(N)=O)C(=O)N[C@@H](CCSC)C(=O)N[C@@H](C)C(=O)N[C@H](C(=O)N[C@@H](CCCCN)C(=O)N[C@@H](CCCCN)C(=O)N[C@@H](Cc1ccc(O)cc1)C(=O)N[C@@H](CC(C)C)C(=O)N[C@@H](C)C(=O)N[C@@H](C)C(=O)N[C@H](C(=O)N[C@@H](CC(C)C)C(=O)N[C@@H](CO[C@@H]1O[C@H](CO)[C@@H](O)[C@H](O)[C@H]1O)C(N)=O)C(C)C)C(C)C)[C@@H](C)O [PACAP1-27-S-G]															degraded over 30 min	significant increase
